Data from PMC12136037, “Type II kinase inhibitors that target Parkinson’s disease–associated LRRK2” (Science Advances, 2025).

What was measured:
Assay in all cases: 33PanQinase kinome-wide selectivity profile (Reaction Biology)
Assay type in all cases: biochemical
[1] = target: T1, 350 wild-type kinases (Homo sapiens, UniProt P49759); conditions: kinase CLK1, ATP 0,3 µM, singlicate
T1 construct: purchased Reaction Biology (assay service)
Description: (§1) Compound RN341 was tested at two concentrations of 1 and 10 μM against a panel of 350 wild-type kinases in the ^33PanQinase assay. The assay was performed by Reaction Biology (www.reactionbiology.com/services/kinase-assays/kinase-panel-screening/).

[2] = target: T2, 350 wild-type kinases (Homo sapiens, UniProt O14578); conditions: kinase CIT 1-450, ATP 0,1 µM, singlicate
T2 construct: purchased Reaction Biology (assay service)
Description: as §1

[3] = target: T3, 350 wild-type kinases (Homo sapiens, UniProt P30530); conditions: kinase AXL, ATP 0,3 µM, singlicate
T3 construct: purchased Reaction Biology (assay service)
T3 sequence (P30530 26-894): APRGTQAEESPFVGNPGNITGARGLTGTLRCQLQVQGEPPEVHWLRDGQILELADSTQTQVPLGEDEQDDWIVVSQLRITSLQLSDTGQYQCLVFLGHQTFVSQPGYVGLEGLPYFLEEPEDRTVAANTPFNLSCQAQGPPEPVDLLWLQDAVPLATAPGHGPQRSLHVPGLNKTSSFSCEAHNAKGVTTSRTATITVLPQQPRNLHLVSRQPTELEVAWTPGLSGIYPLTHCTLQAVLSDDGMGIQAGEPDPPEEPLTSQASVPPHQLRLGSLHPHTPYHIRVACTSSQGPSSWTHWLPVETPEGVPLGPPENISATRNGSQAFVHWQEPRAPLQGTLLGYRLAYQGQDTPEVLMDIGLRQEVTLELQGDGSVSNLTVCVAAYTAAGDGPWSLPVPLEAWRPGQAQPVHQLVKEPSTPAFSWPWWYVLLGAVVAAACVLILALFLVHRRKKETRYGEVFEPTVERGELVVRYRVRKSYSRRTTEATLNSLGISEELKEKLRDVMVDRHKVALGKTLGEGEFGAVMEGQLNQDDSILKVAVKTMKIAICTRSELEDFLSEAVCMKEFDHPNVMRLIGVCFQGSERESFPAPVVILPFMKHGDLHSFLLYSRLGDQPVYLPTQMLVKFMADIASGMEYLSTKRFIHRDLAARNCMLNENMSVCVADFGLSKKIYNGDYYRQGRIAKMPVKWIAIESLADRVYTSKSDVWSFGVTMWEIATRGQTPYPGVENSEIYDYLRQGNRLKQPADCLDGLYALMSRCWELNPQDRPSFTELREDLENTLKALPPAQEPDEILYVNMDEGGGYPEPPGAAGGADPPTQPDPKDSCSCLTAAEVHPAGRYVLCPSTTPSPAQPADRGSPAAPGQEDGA
Description: as §1

[4] = target: T4, 350 wild-type kinases (Homo sapiens, UniProt P53355); conditions: kinase DAPK1, ATP 0,1 µM, singlicate
T4 construct: purchased Reaction Biology (assay service)
Description: as §1

[5] = target: T5, 350 wild-type kinases (Homo sapiens, UniProt Q04771); conditions: kinase ACVR1, ATP 3 µM, singlicate
T5 construct: purchased Reaction Biology (assay service)
T5 sequence (Q04771 21-509): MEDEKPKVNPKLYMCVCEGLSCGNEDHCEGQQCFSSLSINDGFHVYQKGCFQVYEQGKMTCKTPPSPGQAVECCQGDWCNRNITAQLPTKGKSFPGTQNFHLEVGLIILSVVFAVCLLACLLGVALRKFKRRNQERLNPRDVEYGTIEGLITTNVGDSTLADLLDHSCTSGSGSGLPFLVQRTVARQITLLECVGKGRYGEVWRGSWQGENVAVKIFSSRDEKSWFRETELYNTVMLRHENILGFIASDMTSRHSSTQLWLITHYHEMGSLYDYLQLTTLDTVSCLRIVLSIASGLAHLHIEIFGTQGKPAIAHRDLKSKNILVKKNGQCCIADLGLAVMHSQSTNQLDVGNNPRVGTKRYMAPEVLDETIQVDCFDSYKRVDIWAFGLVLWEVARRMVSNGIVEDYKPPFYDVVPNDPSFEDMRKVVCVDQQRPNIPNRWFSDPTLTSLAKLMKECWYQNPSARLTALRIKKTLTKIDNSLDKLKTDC
Description: as §1

[6] = target: T6, 350 wild-type kinases (Homo sapiens, UniProt P50613); conditions: kinase CDK7/CycH/MAT1, ATP 1 µM, singlicate
T6 construct: purchased Reaction Biology (assay service)
Description: as §1

[7] = target: T7, 350 wild-type kinases (Homo sapiens, UniProt Q9HCP0); conditions: kinase CK1gamma1, ATP 0,1 µM, singlicate
T7 construct: purchased Reaction Biology (assay service)
Description: as §1

[8] = target: T8, 350 wild-type kinases (Homo sapiens, UniProt O00238); conditions: kinase BMPR1B, ATP 3 µM, singlicate
T8 construct: purchased Reaction Biology (assay service)
Description: as §1

[9] = target: T9, 350 wild-type kinases (Homo sapiens, UniProt Q96GD4); conditions: kinase AuroraB, ATP 10 µM, singlicate
T9 construct: purchased Reaction Biology (assay service)
Description: as §1

[10] = target: T10, 350 wild-type kinases (Homo sapiens, UniProt P41279); conditions: kinase COT, ATP 0,3 µM, singlicate
T10 construct: purchased Reaction Biology (assay service)
Description: as §1

[11] = target: T11, 350 wild-type kinases (Homo sapiens, UniProt P49674); conditions: kinase CK1epsilon, ATP 0,3 µM, singlicate
T11 construct: purchased Reaction Biology (assay service)
Description: as §1

[12] = target: T12, 350 wild-type kinases (Homo sapiens, UniProt O14757); conditions: kinase CHK1, ATP 1 µM, singlicate
T12 construct: purchased Reaction Biology (assay service)
Description: as §1

[13] = target: T13, 350 wild-type kinases (Homo sapiens, UniProt Q13131); conditions: kinase AMPKalpha1, ATP 3 µM, singlicate
T13 construct: purchased Reaction Biology (assay service)
Description: as §1

[14] = target: T14, 350 wild-type kinases (Homo sapiens, UniProt Q9UIK4); conditions: kinase DAPK2, ATP 0,1 µM, singlicate
T14 construct: purchased Reaction Biology (assay service)
T14 sequence (Q9UIK4 whole entry): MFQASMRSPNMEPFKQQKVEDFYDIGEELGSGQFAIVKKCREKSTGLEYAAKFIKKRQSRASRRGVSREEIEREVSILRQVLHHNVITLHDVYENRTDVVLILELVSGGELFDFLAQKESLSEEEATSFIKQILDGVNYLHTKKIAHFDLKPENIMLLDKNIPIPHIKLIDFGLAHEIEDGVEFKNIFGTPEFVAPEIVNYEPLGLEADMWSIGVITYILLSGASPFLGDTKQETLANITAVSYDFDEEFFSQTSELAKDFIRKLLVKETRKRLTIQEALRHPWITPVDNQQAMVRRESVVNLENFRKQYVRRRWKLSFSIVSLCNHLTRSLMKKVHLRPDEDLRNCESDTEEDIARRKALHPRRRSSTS
Description: as §1

[15] = target: T15, 350 wild-type kinases (Homo sapiens, UniProt Q8N5S9); conditions: kinase CAMKK1, ATP 3 µM, singlicate
T15 construct: purchased Reaction Biology (assay service)
Description: as §1

[16] = target: T16, 350 wild-type kinases (Homo sapiens, UniProt O14965); conditions: kinase AuroraA, ATP 10 µM, singlicate
T16 construct: purchased Reaction Biology (assay service)
T16 sequence (O14965 whole entry): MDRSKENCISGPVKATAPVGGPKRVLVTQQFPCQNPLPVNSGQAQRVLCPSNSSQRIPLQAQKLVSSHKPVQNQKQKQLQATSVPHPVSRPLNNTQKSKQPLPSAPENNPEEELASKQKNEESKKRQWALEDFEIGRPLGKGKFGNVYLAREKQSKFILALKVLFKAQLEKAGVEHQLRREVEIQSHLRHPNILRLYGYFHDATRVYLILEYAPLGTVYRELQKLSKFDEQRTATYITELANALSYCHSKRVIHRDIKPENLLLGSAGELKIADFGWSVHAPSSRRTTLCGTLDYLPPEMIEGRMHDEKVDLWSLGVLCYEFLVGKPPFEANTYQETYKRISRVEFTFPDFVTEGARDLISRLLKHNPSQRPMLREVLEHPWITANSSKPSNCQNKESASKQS
Description: as §1

[17] = target: T17, 350 wild-type kinases (Homo sapiens, UniProt Q5VT25); conditions: kinase CDC42BPA, ATP 0,1 µM, singlicate
T17 construct: purchased Reaction Biology (assay service)
Description: as §1

[18] = target: T18, 350 wild-type kinases (Homo sapiens, UniProt P68400); conditions: kinase CK2alpha1, ATP 0,1 µM, singlicate
T18 construct: purchased Reaction Biology (assay service)
T18 sequence (P68400 whole entry): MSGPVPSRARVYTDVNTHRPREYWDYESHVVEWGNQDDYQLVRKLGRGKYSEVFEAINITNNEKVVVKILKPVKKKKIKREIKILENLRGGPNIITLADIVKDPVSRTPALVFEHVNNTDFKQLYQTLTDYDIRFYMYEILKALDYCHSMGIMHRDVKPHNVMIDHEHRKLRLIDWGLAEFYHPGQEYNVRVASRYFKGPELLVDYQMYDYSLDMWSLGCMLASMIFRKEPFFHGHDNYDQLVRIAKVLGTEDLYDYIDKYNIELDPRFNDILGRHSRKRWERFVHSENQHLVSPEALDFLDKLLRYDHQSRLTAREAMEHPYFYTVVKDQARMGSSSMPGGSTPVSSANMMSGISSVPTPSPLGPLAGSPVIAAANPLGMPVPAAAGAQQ
Description: as §1

[19] = target: T19, 350 wild-type kinases (Homo sapiens, UniProt P42684); conditions: kinase ABL2, ATP 0,3 µM, singlicate
T19 construct: purchased Reaction Biology (assay service)
T19 sequence (P42684 whole entry): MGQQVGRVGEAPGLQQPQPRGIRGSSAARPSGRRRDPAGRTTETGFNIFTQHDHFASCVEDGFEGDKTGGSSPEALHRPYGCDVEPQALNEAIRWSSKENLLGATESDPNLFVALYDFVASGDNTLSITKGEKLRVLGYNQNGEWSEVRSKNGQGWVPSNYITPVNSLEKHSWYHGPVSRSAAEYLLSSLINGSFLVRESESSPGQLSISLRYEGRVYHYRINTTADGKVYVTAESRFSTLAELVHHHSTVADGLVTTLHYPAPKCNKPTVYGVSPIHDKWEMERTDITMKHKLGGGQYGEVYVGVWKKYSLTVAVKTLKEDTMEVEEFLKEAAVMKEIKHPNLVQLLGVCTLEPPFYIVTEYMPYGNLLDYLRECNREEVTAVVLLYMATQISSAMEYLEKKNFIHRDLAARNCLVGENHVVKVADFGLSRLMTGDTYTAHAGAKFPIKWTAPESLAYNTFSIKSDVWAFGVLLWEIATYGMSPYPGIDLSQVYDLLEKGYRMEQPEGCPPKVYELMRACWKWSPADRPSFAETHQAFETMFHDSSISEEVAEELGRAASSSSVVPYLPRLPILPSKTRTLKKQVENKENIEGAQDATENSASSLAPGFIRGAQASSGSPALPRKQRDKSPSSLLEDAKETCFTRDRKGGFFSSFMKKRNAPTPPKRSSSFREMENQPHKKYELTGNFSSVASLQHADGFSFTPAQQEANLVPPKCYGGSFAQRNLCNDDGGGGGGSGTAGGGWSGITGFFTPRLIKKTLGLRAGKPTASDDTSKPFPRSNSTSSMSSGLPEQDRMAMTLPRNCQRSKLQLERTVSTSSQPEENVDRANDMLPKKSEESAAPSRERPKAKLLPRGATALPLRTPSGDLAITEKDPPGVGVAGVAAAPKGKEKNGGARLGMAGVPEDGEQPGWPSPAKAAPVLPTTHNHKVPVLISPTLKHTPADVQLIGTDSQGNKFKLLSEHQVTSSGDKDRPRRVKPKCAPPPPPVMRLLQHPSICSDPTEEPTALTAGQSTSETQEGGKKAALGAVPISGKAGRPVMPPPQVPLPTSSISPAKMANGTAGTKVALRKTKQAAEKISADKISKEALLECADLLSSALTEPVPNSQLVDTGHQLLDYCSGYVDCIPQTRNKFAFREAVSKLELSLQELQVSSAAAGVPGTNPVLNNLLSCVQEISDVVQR
Description: as §1

[20] = target: T20, 350 wild-type kinases (Homo sapiens, UniProt Q00526); conditions: ATP 3 µM, singlicate; for Residual activity (% of control), CDK3/CycC: kinase CDK3/CycC; for Residual activity (% of control), CDK3/CycE1: kinase CDK3/CycE1
T20 construct: purchased Reaction Biology (assay service)
T20 sequence (Q00526 whole entry): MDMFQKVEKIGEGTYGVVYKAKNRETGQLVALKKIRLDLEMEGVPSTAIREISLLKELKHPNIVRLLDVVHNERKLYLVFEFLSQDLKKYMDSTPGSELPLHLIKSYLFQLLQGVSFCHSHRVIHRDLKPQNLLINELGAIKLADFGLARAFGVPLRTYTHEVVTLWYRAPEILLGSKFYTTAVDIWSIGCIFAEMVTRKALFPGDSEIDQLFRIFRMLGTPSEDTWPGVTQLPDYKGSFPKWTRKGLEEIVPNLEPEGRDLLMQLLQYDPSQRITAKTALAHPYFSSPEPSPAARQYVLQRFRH
Description: as §1

[21] = target: T21, 350 wild-type kinases (Homo sapiens, UniProt P51813); conditions: kinase BMX, ATP 1 µM, singlicate
T21 construct: purchased Reaction Biology (assay service)
Description: as §1

[22] = target: T22, 350 wild-type kinases (Homo sapiens, UniProt O96017); conditions: kinase CHK2, ATP 1 µM, singlicate
T22 construct: purchased Reaction Biology (assay service)
Description: as §1

[23] = target: T23, 350 wild-type kinases (Homo sapiens, UniProt Q13557); conditions: kinase CAMK2D, ATP 1 µM, singlicate
T23 construct: purchased Reaction Biology (assay service)
T23 sequence (Q13557 whole entry): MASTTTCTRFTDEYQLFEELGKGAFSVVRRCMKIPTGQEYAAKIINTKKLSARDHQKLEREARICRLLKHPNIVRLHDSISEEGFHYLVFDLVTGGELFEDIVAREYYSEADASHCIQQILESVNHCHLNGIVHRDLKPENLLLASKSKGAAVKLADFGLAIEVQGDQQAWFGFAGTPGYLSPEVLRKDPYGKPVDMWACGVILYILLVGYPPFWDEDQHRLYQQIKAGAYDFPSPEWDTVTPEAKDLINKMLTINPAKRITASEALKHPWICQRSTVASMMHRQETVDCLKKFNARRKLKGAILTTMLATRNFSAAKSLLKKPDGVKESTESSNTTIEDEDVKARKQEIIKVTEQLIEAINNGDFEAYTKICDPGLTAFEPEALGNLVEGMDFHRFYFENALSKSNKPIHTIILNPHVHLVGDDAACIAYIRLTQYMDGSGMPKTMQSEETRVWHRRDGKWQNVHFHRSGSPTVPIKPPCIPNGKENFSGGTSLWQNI
Description: as §1

[24] = target: T24, 350 wild-type kinases (Homo sapiens, UniProt P48730); conditions: kinase CK1delta, ATP 0,3 µM, singlicate
T24 construct: purchased Reaction Biology (assay service)
T24 sequence (P48730 whole entry): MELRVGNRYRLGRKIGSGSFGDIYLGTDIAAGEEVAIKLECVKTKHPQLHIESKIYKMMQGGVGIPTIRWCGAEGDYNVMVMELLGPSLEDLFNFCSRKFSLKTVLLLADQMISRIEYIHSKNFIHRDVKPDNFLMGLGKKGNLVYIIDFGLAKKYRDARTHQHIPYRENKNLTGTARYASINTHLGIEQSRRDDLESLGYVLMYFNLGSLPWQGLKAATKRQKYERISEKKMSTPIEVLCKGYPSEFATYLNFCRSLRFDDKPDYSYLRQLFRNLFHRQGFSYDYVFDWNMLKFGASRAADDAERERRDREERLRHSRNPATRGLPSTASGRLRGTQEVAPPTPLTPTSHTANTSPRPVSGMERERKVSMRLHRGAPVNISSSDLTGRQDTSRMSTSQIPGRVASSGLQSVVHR
Description: as §1

Question: Which “Residual activity (% of control), CLK1” value ([1]; Assay Conc. 1.0E-05 M) does the source give for CCSc1nc(NC)c2c(-c3cccc(NC(=O)Nc4cc(C(C)(C)C)nn4-c4ccc(C)cc4)c3)c[nH]c2n1 [Compound 32] here?
Answer: 54 % of control

Question: What about the “Residual activity (% of control), CLK1” value ([1]; Assay Conc. 1.0E-06 M) of the same compound?
Answer: 86 % of control

Question: And the “Residual activity (% of control), CIT 1-450” value ([2]; Assay Conc. 1.0E-05 M)?
Answer: 71 % of control

Question: And the “Residual activity (% of control), CIT 1-450” value ([2]; Assay Conc. 1.0E-06 M)?
Answer: 100 % of control

Question: What about the “Residual activity (% of control), AXL” value ([3]; Assay Conc. 1.0E-05 M) of the same compound?
Answer: 59 % of control

Question: What about the “Residual activity (% of control), AXL” value ([3]; Assay Conc. 1.0E-06 M) of the same compound?
Answer: 94 % of control

Question: What about the “Residual activity (% of control), DAPK1” value ([4]; Assay Conc. 1.0E-05 M) of the same compound?
Answer: 78 % of control

Question: What about the “Residual activity (% of control), DAPK1” value ([4]; Assay Conc. 1.0E-06 M) of the same compound?
Answer: 95 % of control

Question: And the “Residual activity (% of control), ACVR1” value ([5]; Assay Conc. 1.0E-05 M)?
Answer: 93 % of control

Question: And the “Residual activity (% of control), ACVR1” value ([5]; Assay Conc. 1.0E-06 M)?
Answer: 107 % of control

Question: What about the “Residual activity (% of control), CDK7/CycH/MAT1” value ([6]; Assay Conc. 1.0E-05 M) of the same compound?
Answer: 75 % of control

Question: And the “Residual activity (% of control), CDK7/CycH/MAT1” value ([6]; Assay Conc. 1.0E-06 M)?
Answer: 100 % of control

Question: And the “Residual activity (% of control), CK1gamma1” value ([7]; Assay Conc. 1.0E-05 M)?
Answer: 97 % of control

Question: And the “Residual activity (% of control), CK1gamma1” value ([7]; Assay Conc. 1.0E-06 M)?
Answer: 92 % of control

Question: What about the “Residual activity (% of control), BMPR1B” value ([8]; Assay Conc. 1.0E-05 M) of the same compound?
Answer: 102 % of control

Question: What about the “Residual activity (% of control), BMPR1B” value ([8]; Assay Conc. 1.0E-06 M) of the same compound?
Answer: 109 % of control

Question: And the “Residual activity (% of control), AuroraB” value ([9]; Assay Conc. 1.0E-05 M)?
Answer: 74 % of control

Question: And the “Residual activity (% of control), AuroraB” value ([9]; Assay Conc. 1.0E-06 M)?
Answer: 107 % of control

Question: And the “Residual activity (% of control), COT” value ([10]; Assay Conc. 1.0E-05 M)?
Answer: 69 % of control

Question: And the “Residual activity (% of control), COT” value ([10]; Assay Conc. 1.0E-06 M)?
Answer: 96 % of control

Question: And the “Residual activity (% of control), CK1epsilon” value ([11]; Assay Conc. 1.0E-05 M)?
Answer: 74 % of control

Question: What about the “Residual activity (% of control), CK1epsilon” value ([11]; Assay Conc. 1.0E-06 M) of the same compound?
Answer: 97 % of control

Question: What about the “Residual activity (% of control), CHK1” value ([12]; Assay Conc. 1.0E-05 M) of the same compound?
Answer: 72 % of control

Question: And the “Residual activity (% of control), CHK1” value ([12]; Assay Conc. 1.0E-06 M)?
Answer: 110 % of control

Question: What about the “Residual activity (% of control), AMPKalpha1” value ([13]; Assay Conc. 1.0E-05 M) of the same compound?
Answer: 85 % of control

Question: And the “Residual activity (% of control), AMPKalpha1” value ([13]; Assay Conc. 1.0E-06 M)?
Answer: 95 % of control

Question: What about the “Residual activity (% of control), DAPK2” value ([14]; Assay Conc. 1.0E-05 M) of the same compound?
Answer: 88 % of control

Question: What about the “Residual activity (% of control), DAPK2” value ([14]; Assay Conc. 1.0E-06 M) of the same compound?
Answer: 93 % of control

Question: What about the “Residual activity (% of control), CAMKK1” value ([15]; Assay Conc. 1.0E-05 M) of the same compound?
Answer: 122 % of control

Question: And the “Residual activity (% of control), CAMKK1” value ([15]; Assay Conc. 1.0E-06 M)?
Answer: 114 % of control

Question: And the “Residual activity (% of control), AuroraA” value ([16]; Assay Conc. 1.0E-05 M)?
Answer: 74 % of control

Question: And the “Residual activity (% of control), AuroraA” value ([16]; Assay Conc. 1.0E-06 M)?
Answer: 96 % of control

Question: And the “Residual activity (% of control), CDC42BPA” value ([17]; Assay Conc. 1.0E-05 M)?
Answer: 111 % of control

Question: And the “Residual activity (% of control), CDC42BPA” value ([17]; Assay Conc. 1.0E-06 M)?
Answer: 122 % of control

Question: What about the “Residual activity (% of control), CK2alpha1” value ([18]; Assay Conc. 1.0E-05 M) of the same compound?
Answer: 82 % of control

Question: What about the “Residual activity (% of control), CK2alpha1” value ([18]; Assay Conc. 1.0E-06 M) of the same compound?
Answer: 102 % of control

Question: What about the “Residual activity (% of control), ABL2” value ([19]; Assay Conc. 1.0E-05 M) of the same compound?
Answer: 73 % of control

Question: And the “Residual activity (% of control), ABL2” value ([19]; Assay Conc. 1.0E-06 M)?
Answer: 107 % of control

Question: What about the “Residual activity (% of control), CDK3/CycC” value ([20]; Assay Conc. 1.0E-05 M) of the same compound?
Answer: 65 % of control

Question: And the “Residual activity (% of control), CDK3/CycC” value ([20]; Assay Conc. 1.0E-06 M)?
Answer: 106 % of control

Question: What about the “Residual activity (% of control), CDK3/CycE1” value ([20]; Assay Conc. 1.0E-05 M) of the same compound?
Answer: 75 % of control

Question: And the “Residual activity (% of control), CDK3/CycE1” value ([20]; Assay Conc. 1.0E-06 M)?
Answer: 115 % of control

Question: What about the “Residual activity (% of control), BMX” value ([21]; Assay Conc. 1.0E-05 M) of the same compound?
Answer: 68 % of control

Question: And the “Residual activity (% of control), BMX” value ([21]; Assay Conc. 1.0E-06 M)?
Answer: 109 % of control

Question: And the “Residual activity (% of control), CHK2” value ([22]; Assay Conc. 1.0E-05 M)?
Answer: 64 % of control

Question: And the “Residual activity (% of control), CHK2” value ([22]; Assay Conc. 1.0E-06 M)?
Answer: 90 % of control

Question: And the “Residual activity (% of control), CAMK2D” value ([23]; Assay Conc. 1.0E-05 M)?
Answer: 67 % of control

Question: And the “Residual activity (% of control), CAMK2D” value ([23]; Assay Conc. 1.0E-06 M)?
Answer: 104 % of control

Question: And the “Residual activity (% of control), CK1delta” value ([24]; Assay Conc. 1.0E-05 M)?
Answer: 85 % of control

Question: And the “Residual activity (% of control), CK1delta” value ([24]; Assay Conc. 1.0E-06 M)?
Answer: 98 % of control
